This note sets out measurements from EP4585599A1, “NITROGEN-CONTAINING FUSED RING COMPOUND, INTERMEDIATE THEREOF, PREPARATION METHOD THEREFOR AND USE THEREOF” (Hangzhou Synrx Therapeutics Biomedical Technology Co., Ltd., priority 2022, dated 2024).

Assay [1] has as its target T1, helicase domain of the Pol θ protein (Homo sapiens, UniProt O75417).
T1 construct: The helicase domain of the Pol θ protein was purified from insect protein expression system; made in house; host or cells: insect protein expression system
Put plainly: Biochemical Activity Assay (ADP Glo Assay) of Pol θ inhibitor, ATPase activity.

Assay [2] can be described thus: cells. As to conditions: Homo sapiens, DLD-1, 240 h.
The mark [3] stands for this setting: ADP-Glo assay, ATPase activity of Pol θ helicase domain, ssDNA substrate, read-out: Biochemical assay IC50.
Setting [4] is: ADP-Glo, ssDNA substrate, 60 min at room temperature, read-out: Biochemical assay IC50.
The mark [5] stands for this setting: read-out: Cell viability assay IC50 (nM), CTG assay, CellTiter Glo, read on Day 10, cell line not given.
The mark [6] stands for this setting: read-out: Cell viability assay IC50 (nM), CTG on Day 10, cell line not given (method: DLD1 and DLD1^-/- cells).
Where [7] appears, read: read-out: Biochemical assay IC50.

Several values for one entry are separate records, joined by “and”; a condition that tells them apart may be missing. Equal values may be shown once. Read-outs that look alike come from different tables or passages of the source.

T1 sequence (O75417 102-554 limits assumed): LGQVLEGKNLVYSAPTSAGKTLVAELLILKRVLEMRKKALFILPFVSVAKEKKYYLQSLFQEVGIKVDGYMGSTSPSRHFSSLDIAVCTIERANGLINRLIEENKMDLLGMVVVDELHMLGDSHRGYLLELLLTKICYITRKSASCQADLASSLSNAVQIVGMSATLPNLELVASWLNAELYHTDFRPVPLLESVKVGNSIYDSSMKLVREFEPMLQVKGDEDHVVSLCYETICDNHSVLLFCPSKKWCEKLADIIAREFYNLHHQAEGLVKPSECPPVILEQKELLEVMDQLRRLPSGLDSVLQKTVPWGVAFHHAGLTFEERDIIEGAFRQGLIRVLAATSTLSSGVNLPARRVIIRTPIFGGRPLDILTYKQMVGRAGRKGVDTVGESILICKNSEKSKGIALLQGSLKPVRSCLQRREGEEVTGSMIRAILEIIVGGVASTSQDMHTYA

For `COc1ccccc1-c1cnncc1C(=O)Nc1nc2ccc(-c3ccn[nH]3)nc2s1` [Comparative Example 2, reference compound], in assay [1] (setting [3]), the IC50 worked out at 307 nM. For the compound `COc1cnc(Cl)cc1-c1cc(C)ncc1C(=O)Nc1nc2ccc(C3=CCC(O)CC3)nc2s1` (centres unmarked) [Example 1, 2'-chloro-N-(5-(4-hydroxycyclohex-1-en-1-yl)thiazol[5,4-b]pyridin-2-yl)-5'-methoxy-6-methyl-[4,4'-bipyridine]-3-carboxamide], the half-maximal inhibitory concentration (IC50) in assay [1] (Biochemical assay IC50 (nM)) was < 50 nM and 7.07 nM. Regarding `COc1cnc(Cl)cc1-c1cc(C)ncc1C(=O)Nc1nc2cc(C3=CCC(O)CC3)cnc2s1` (centres unmarked) [Example 2], the IC50 in assay [1] (setting [3]) was 118 nM; in assay [1] (setting [4]), 50 to 200 nM; in assay [2] (setting [5]), 3160 nM; in assay [2] (setting [6]) it was over 1000 nM. The corresponding values for `COc1cnc(Cl)cc1-c1cc(C)ncc1C(=O)Nc1nc2ncc(C3=CCC(O)CC3)cc2s1` (centres unmarked) [Example 3] are 2.51 nM, under 50 nM, 13.6 nM and under 100 nM. The matching figures for `COc1cnc(Cl)cc1-c1cnccc1C(=O)Nc1nc2ccc(C3=CCC(O)CC3)nc2s1` (centres unmarked) [Example 4]: 19.1 nM, under 50 nM, 736 nM and 500 to 1000 nM. With `COc1cccc(F)c1-c1cc(C)ncc1C(=O)Nc1nc2ccc(C3=CCC(O)CC3)nc2s1` (centres unmarked) [Example 5], the IC50 was 81.5 nM in assay [1] (setting [3]), 50 to 200 nM in assay [1] (setting [4]), 153 nM in assay [2] (setting [5]) and 100 to 500 nM in assay [2] (setting [6]). The matching figures for `COc1cnc(Cl)cc1-c1cncnc1C(=O)Nc1nc2ccc(C3=CCC(O)CC3)nc2s1` (centres unmarked) [Example 6]: 193 nM, 50 to 200 nM, 794 nM and 500 to 1000 nM. `COc1cnc(Cl)c(F)c1-c1cc(C)ncc1C(=O)Nc1nc2cccnc2s1` [Example 38, 2'-chloro-3'-fluoro-5'-methoxy-6-methyl-N-(thiazol[5,4-b]pyridin-2-yl)-[4,4'-bipyridine]-3-carboxamide]: the IC50 in assay [1] (Biochemical assay IC50 (nM)) was < 50 nM and 17.3 nM. For the compound `COc1cnc(Cl)c(F)c1-c1cc(C)ncc1C(=O)Nc1nc2c(s1)CN(CC1CCOC1)CC2` (centres unmarked) [Example 40, 2'-chloro-3'-fluoro-5'-methoxy-6-methyl-N-(5-((tetrahydrofuran-3-yl)methyl)-4,5,6,7-hexahydrothiazolo[5,4-c]pyridin-2-yl)-[4,4'-bipyridine]-3-carboxamide], the IC50 in assay [1] (Biochemical assay IC50 (nM)) was 50 to 200 nM and 14.9 nM. Consider `COc1cnc(Cl)cc1-c1cc(C)ncc1C(=O)Nc1nc2ccc(N3CCN(C)CC3)nc2s1` [Example 43, 2'-chloro-5'-methoxy-6-methyl-N-(5-(4-methylpiperazin-1-yl)thiazol[5,4-b]pyridin-2-yl)-[4,4'-bipyridine]-3-carboxamide], for which the half-inhibitory concentration (IC50) in assay [1] (Biochemical assay IC50 (nM)) was 50 to 200 nM and 51.9 nM. Regarding `COc1cnc(Cl)cc1-c1cc(C)ncc1C(=O)Nc1nc2ccc(-c3ccc(Cl)cn3)nc2s1` [Example 44, 2'-chloro-N-(5-(5-chloropyridin-2-yl)thiazol[5,4-b]pyridin-2-yl)-5'-methoxy-6-methyl-[4, 4'-bipyridine]-3-carboxamide], the IC50 in assay [1] (Biochemical assay IC50 (nM)) was < 50 nM and 5.81 nM. Consider `COc1cnc(Cl)cc1-c1cc(C)ncc1C(=O)Nc1nc2c(s1)CN(c1ccc(Cl)cn1)CC2` [Example 92, 2'-chloro-N-(5-(5-chloropyridin-2-yl)-4,5,6,7-tetrahydrothiazol[5,4-c]pyridin-2-)-5'-methoxy-6-methyl-[4,4'-bipyridine]-3-carboxamide], for which the IC50 in assay [1] (Biochemical assay IC50 (nM)) is 50 to 200 nM and 59.9 nM.

On to `[2H]C1(O)CCN(c2ccc3nc(NC(=O)c4cnc(C)cc4-c4cc(Cl)ncc4OC)sc3n2)CC1` [Example 112, 2'-chloro-N-(5-(4-hydroxypiperidin-1-yl-4-deuterium)thiazol[5,4-b]pyridin-2-yl)-5'-met hoxy-6-methyl-[4,4'-bipyridine]-3-carboxamide], for which, in assay [1] (Biochemical assay IC50 (nM), ADP-Glo assay, ATPase activity of Pol θ helicase domain, ssDNA substrate), the half-inhibitory concentration (IC50) is 10 nM. Take `COc1cnc(Cl)cc1-c1cc(C)ncc1C(=O)Nc1nc2cnc(C3=CC[C@H](O)CC3)cc2s1` [Example 114, (R)-2'-chloro-N-(6-(4-hydroxycyclohex-1-en-1-yl)thiazolo[4,5-c]pyridin-2-yl)-5'-methoxy-6-methyl-[4.4'-bipyridine]-3-carboxamide]: the half-inhibitory concentration (IC50) in assay [1] (Biochemical assay IC50 (nM)) was < 50 nM and 3.98 nM. Take `COc1cnc(Cl)cc1-c1cc(C)ncc1C(=O)Nc1nc2c(C(=O)O)cc(-c3c(C)cnn3C)cc2s1` [Example 164]: the IC50 in assay [1] (setting [3]) amounted to 8.32 nM. `COc1cnc(Cl)cc1-c1cc(C)ncc1C(=O)Nc1nc2cnc(-c3c(F)cnn3CCO)cc2s1` [Example 168]: the half-inhibitory concentration (IC50) in assay [2] (setting [5]) was found to be 4.46 nM.

In the case of `COc1cnc(C(F)F)cc1-c1cc(C)ncc1C(=O)Nc1nc2cnc(-c3c(F)cnn3C)cc2s1` [Example 173], the IC50 in assay [1] (setting [3]) came to 2.93 nM.

For `COc1cnc(C(F)F)cc1-c1cc(C)ncc1C(=O)Nc1nc2cnc(-c3c(C)cnn3C)cc2s1` [Example 174], the half-inhibitory concentration (IC50) in assay [1] (setting [3]) stood at 2.93 nM. The same measure, in the same setting: as for `COc1cnc(Cl)cc1-c1cc(C)ncc1C(=O)Nc1nc2cnc(-c3ncon3)cc2s1` [Example 181, N-(6-(1,2,4-oxadiazol-3-yl)thiazolo[4,5-c]pyridin-2-yl)-2'-chloro-5'-methoxy-6-methyl-[4,4'-bipyridine]-3-carboxamide], the figure is 6.71 nM. As to `COc1cnc(C(F)F)cc1-c1cc(N2CCN(C)C3(CC3)C2=O)ncc1C(=O)Nc1nc2cnc(-c3c(C)nnn3C)cc2s1` [Example 197], in assay [1] (setting [7]), the 50% inhibitory concentration (IC50) worked out at 8.57 nM.

Turning to `COc1cnc(Cl)cc1-c1cc(C)ncc1C(=O)Nc1nc2cnc(-c3c(C)nnn3C)c(C#N)c2s1` [Example 228, 2'-chloro-N-(7-cyano-6-(1,4-dimethyl-1H-1,2,3-triazol-5-yl)thiazolo[4,5-c]pyridin-2-yl)-5'-methoxy-6-methyl-[4,4'-bipyridine]-3-carboxamide], the IC50 in assay [1] (setting [3]) was 111 nM.

As to `COc1cnc(Cl)cc1-c1cc(C)ncc1C(=O)Nc1nc2cnc(-c3c(C)nnn3C)c(OC)c2s1` [Example 229, 2'-chloro-N-(6-(1,4-dimethyl-1H-1,2,3-triazol-5-yl)-7-methoxythiazolo[4,5-c]pyridin-2-yl)-5'-methoxy-6-methyl-[4,4'-bipyridine]-3-carboxamide], the IC50 in assay [1] (setting [3]) is 36.7 nM.

In the case of `[2H]C([2H])([2H])Oc1cnc(Cl)cc1-c1cc(C)ncc1C(=O)Nc1nc2cnc(-c3c(C)nnn3C)c(F)c2s1` [Example 230, 2'-chloro-N-(6-(1,4-dimethyl-1H-1,2,3-triazol-5-yl)-7-fluorothiazolo[4,5-c]pyridin-2-yl)-5'-(methoxy-d3)-6-methyl-[4,4'-bipyridine]-3-carboxamide], in assay [1] (setting [3]), the IC50 came out at 2.84 nM. With `[2H]C([2H])([2H])Oc1cnc(Cl)cc1-c1cc(C([2H])([2H])[2H])ncc1C(=O)Nc1nc2cnc(-c3c(C)nnn3C)c(F)c2s1` [Example 231, 2'-chloro-N-(6-(1,4-dimethyl-1H-1,2,3-triazol-5-yl)-7-fluorothiazolo[4,5-c]pyridin-2-yl)-5'-(methoxy-d3)-6-(methyl-d3)-[4,4'-bipyridine]-3-carboxamide], the half-maximal inhibitory concentration (IC50) in assay [1] (setting [3]) was 3.08 nM. For the compound `COc1cnc(Cl)cc1-c1cc(C)ncc1C(=O)Nc1nc2nc(F)c(-c3c(C)nnn3C)cc2s1` [Example 232], in assay [1] (setting [7]), the IC50 amounted to 2.51 nM. `COc1cnc(Cl)cc1-c1cc(C)ncc1C(=O)Nc1nc2cnc(-c3c(C)nnn3C)c(C)c2s1` [Example 233, 2'-chloro-N-(6-(1,4-dimethyl-1H-1,2,3-triazol-5-yl)-7-methylthiazolo[4,5-c]pyridin-2-yl) -5'-methoxy-6-methyl-[4,4'-bipyridine]-3-carboxamide]: the IC50 in assay [1] (setting [3]) was 8.58 nM.

For orientation: IC50 means the point on the concentration scale where inhibition reaches its midpoint.
